Reference: patent publication US20240109853A1 (Shanghai Yao Yuan Biotechnology Co., Ltd., priority 2020, published 2024)
Structures can show the parent of a compound that is named as a salt.

Biological target: ALPK1 (Homo sapiens (Human), UniProt Q96QP1)
Test: ALPK1 in vitro kinase assay (HTRF of TIFA phosphorylation)
Assay type: biochemical
Details: ALPK1 2 nM, TIFA substrate, ADP-Heptose activator, HTRF readout

Chain of ALPK1 (Q96QP1 whole entry): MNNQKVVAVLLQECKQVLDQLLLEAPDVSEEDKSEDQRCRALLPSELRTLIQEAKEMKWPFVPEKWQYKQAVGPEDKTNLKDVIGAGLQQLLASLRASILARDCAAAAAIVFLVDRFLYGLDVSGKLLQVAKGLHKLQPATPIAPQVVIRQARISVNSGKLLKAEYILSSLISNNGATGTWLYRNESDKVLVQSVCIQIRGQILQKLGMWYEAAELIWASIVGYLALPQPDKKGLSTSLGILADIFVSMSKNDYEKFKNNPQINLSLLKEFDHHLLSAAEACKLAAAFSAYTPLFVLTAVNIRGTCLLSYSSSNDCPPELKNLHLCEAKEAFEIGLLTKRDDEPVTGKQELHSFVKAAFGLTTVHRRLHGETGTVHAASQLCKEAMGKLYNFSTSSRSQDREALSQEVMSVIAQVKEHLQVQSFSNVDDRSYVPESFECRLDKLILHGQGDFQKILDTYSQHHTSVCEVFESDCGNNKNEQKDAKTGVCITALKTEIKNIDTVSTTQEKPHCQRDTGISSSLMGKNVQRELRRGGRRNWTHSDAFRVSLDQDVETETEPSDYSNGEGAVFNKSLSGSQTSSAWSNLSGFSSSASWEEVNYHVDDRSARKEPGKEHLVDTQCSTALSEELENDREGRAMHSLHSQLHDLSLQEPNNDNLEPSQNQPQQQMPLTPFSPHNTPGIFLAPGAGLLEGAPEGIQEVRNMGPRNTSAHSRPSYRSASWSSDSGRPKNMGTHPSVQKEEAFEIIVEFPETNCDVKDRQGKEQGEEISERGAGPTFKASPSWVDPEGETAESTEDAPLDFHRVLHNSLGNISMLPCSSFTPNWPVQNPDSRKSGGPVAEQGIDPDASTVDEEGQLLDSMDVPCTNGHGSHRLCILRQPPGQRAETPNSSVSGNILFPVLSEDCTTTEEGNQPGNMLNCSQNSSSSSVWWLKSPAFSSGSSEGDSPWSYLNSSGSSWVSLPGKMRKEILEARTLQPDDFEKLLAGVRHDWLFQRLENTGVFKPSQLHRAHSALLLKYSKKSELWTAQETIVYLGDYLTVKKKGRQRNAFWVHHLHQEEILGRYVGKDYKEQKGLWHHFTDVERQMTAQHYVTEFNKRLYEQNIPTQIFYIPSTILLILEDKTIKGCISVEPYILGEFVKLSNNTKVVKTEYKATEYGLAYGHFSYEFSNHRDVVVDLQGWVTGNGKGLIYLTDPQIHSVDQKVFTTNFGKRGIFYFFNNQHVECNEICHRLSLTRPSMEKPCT

SMILES	IC50 [nM]
COc1ccc(C(C)(C)c2csc(NC(=O)c3ccc(N4CCC(N(C)C)C4)cc3)n2)cc1 (stereo not drawn) [Example B027, 4-(3-(dimethylamino)pyrrolidin-1-yl)-N-(4-(2-(4-methoxyphenyl)propan-2-yl)thiazol-2-yl)benzamide]	219
COc1ccc(C(C)(C)c2csc(NC(=O)c3ccc(NC4CCN(C)CC4)cc3)n2)cc1 [Example B028, N-(4-(2-(4-methoxyphenyl)propan-2-yl)thiazol-2-yl)-4-((1-methylpiperidin-4-yl)amino)benzamide]	271
COc1ccc(C(C)(C)c2csc(NC(=O)c3ccc(C(=O)NC4CCN(C)CC4)cc3)n2)cc1 [Example B030, N1-(4-(2-(4-methoxyphenyl)propan-2-yl)thiazol-2-yl)-N4-(1-methylpiperidin-4-yl)terephthalamide]	155
Cc1ccc(C(C)(C)c2csc(NC(=O)c3ccc(N4CCNCC4)cc3)n2)cc1 [Example B031, 4-(piperazin-1-yl)-N-(4-(2-(p-tolyl)propan-2-yl)thiazol-2-yl)benzamide]	37
COc1ccc(C(C)(C)c2csc(NC(=O)c3ccc(NCCO)cc3)n2)cc1 [Example B032, 4-((2-hydroxyethyl)amino)-N-(4-(2-(4-methoxyphenyl)propan-2-yl)thiazol-2-yl)benzamide]	280
COc1ccc(C(C)(C)c2csc(NC(=O)c3ccc(NCCN)cc3)n2)cc1 [Example B033, 4-((2-aminoethyl)amino)-N-(4-(2-(4-methoxyphenyl)propan-2-yl)thiazol-2-yl)benzamide]	247
COc1ccc(C(C)(C)c2csc(NC(=O)c3ccc(CN4CCN(CCO)CC4)cc3)n2)cc1 [Example B034, 4-((4-(2-hydroxyethyl)piperazin-1-yl)methyl)-N-(4-(2-(4-methoxyphenyl)propan-2-yl)thiazol-2-yl)benzamide]	44
CC(C)(c1ccc(Br)cc1)c1csc(NC(=O)c2ccc(N3CCNCC3)nc2)n1 [Example B035, N-(4-(2-(4-bromophenyl)propan-2-yl)thiazol-2-yl)-6-(piperazin-1-yl)nicotinamide]	75
CC(C)(c1ccc(Br)cc1)c1csc(NC(=O)c2cnc(N3CCNCC3)nc2)n1 [Example B036, N-(4-(2-(4-bromophenyl)propan-2-yl)thiazol-2-yl)-2-(piperazin-1-yl)pyrimidine-5-carboxamide]	110
CC(C)(c1ccc(Br)cc1)c1csc(NC(=O)NCc2cc(F)c(N3CCNCC3)c(F)c2)n1 [Example B037, 1-(4-(2-(4-bromophenyl)propan-2-yl)thiazol-2-yl)-3-(3,5-difluoro-4-(piperazin-1-yl)benzyl)urea]	23
COc1ccc(C(C)(C)c2cnc(NC(=O)c3ccc(N4CCNCC4)c(F)c3)s2)cc1 [Example B038, 3-fluoro-N-(5-(2-(4-methoxyphenyl)propan-2-yl)thiazol-2-yl)-4-(piperazin-1-yl)benzamide]	216
COc1ccc(C(C)(C)c2csc(NC(=O)c3ccc(N4CCNCC4)c(OC)c3)n2)cc1 [Example B039, 3-methoxy-N-(4-(2-(4-methoxyphenyl)propan-2-yl)thiazol-2-yl)-4-(piperazin-1-yl)benzamide]	123
COc1ccc(C(C)(C)c2csc(NC(=O)c3ccc(CN4CCNCC4)cc3)n2)cc1 [Example B040, N-(4-(2-(4-methoxyphenyl)propan-2-yl)thiazol-2-yl)-4-(piperazin-1-ylmethyl)benzamide]	93
COc1ccc(C(C)(C)c2csc(NC(=O)c3ccc(N4CCC(N)C4)cc3)n2)cc1 (stereo not drawn) [Example B041, 4-(3-aminopyrrolidin-1-yl)-N-(4-(2-(4-methoxyphenyl)propan-2-yl)thiazol-2-yl)benzamide]	80
COc1ccc(C(C)(C)c2csc(NC(=O)c3ccc(N4CCNCC4)nc3)n2)cc1 [Example B042, N-(4-(2-(4-methoxyphenyl)propan-2-yl)thiazol-2-yl)-6-(piperazin-1-yl)nicotinamide]	86
COc1ccc(C(C)(C)c2csc(NC(=O)c3ccc(N4CCC(N)C4)nc3)n2)cc1 (stereo not drawn) [Example B043, 6-(3-aminopyrrolidin-1-yl)-N-(4-(2-(4-methoxyphenyl)propan-2-yl)thiazol-2-yl)nicotinamide]	140
COc1ccc(C(C)(C)c2csc(NC(=O)c3ccc(N4CCNCC4)cn3)n2)cc1 [Example B044, N-(4-(2-(4-methoxyphenyl)propan-2-yl)thiazol-2-yl)-5-(piperazin-1-yl)picolinamide]	213
Cc1ccc(C(C)(C)c2csc(NC(=O)c3ccc(N4CCNCC4)nc3)n2)cc1 [Example B045, 6-(piperazin-1-yl)-N-(4-(2-(p-tolyl)propan-2-yl)thiazol-2-yl)nicotinamide]	30
Cc1ccc(C(C)(C)c2csc(NC(=O)c3ccc(CN4CCN(C)CC4)cc3)n2)cc1 [Example B046, 4-((4-methylpiperazin-1-yl)methyl)-N-(4-(2-(p-tolyl)propan-2-yl)thiazol-2-yl)benzamide]	28
COc1ccc(C(C)(C)c2csc(NC(=O)c3ccc(C4CCNCC4)cc3)n2)cc1 [Example B047, N-(4-(2-(4-methoxyphenyl)propan-2-yl)thiazol-2-yl)-4-(piperidin-4-yl)benzamide hydrochloride]	128
COc1ccc(C(C)(C)c2csc(NC(=O)c3ccc(C4(O)CCNCC4)cc3)n2)cc1 [Example B049, 4-(4-hydroxypiperidin-4-yl)-N-(4-(2-(4-methoxyphenyl)propan-2-yl)thiazol-2-yl)benzamide hydrochloride]	459
COc1ccc(C(C)(C)c2csc(NC(=O)c3cc(I)cc(I)c3O)n2)cc1 [Example B050, 2-hydroxy-3,5-diiodo-N-(4-(2-(4-methoxyphenyl)propan-2-yl)thiazol-2-yl)benzamide]	77
CC(C)(c1ccc(Br)cc1)c1csc(NC(=O)c2ccc(CN3CCN(CCO)CC3)nc2)n1 [Example B051, N-(4-(2-(4-bromophenyl)propan-2-yl)thiazol-2-yl)-6-((4-(2-hydroxyethyl)piperazin-1-yl)methyl)nicotinamide]	61
COc1ccc(C(C)(C)c2csc(NC(=O)c3ccc(CN4CCN(CCO)CC4)nc3)n2)cc1 [Example B052, 6-((4-(2-hydroxyethyl)piperazin-1-yl)methyl)-N-(4-(2-(4-methoxyphenyl)propan-2-yl)thiazol-2-yl)nicotinamide]	111
COc1ccc(C(C)(C)c2csc(NC(=O)c3ccc(N4CCN(CCO)CC4)nc3)n2)cc1 [Example B053, 6-(4-(2-hydroxyethyl)piperazin-1-yl)-N-(4-(2-(4-methoxyphenyl)propan-2-yl)thiazol-2-yl)nicotinamide]	104
CC(C)(c1ccc(Br)cc1)c1csc(NC(=O)c2ccc(N3CCN(CCO)CC3)nc2)n1 [Example B054, N-(4-(2-(4-bromophenyl)propan-2-yl)thiazol-2-yl)-6-(4-(2-hydroxyethyl)piperazin-1-yl)nicotinamide]	269
CN(C)CCNc1ccc(C(=O)Nc2nc(C(C)(C)c3ccc(Br)cc3)cs2)cn1 [Example B055, N-(4-(2-(4-bromophenyl)propan-2-yl)thiazol-2-yl)-6-((2-(dimethylamino)ethyl)amino)nicotinamide]	125
